The target in one experiment is HER2 receptor (Homo sapiens, UniProt P04626). The experiment in a line: Luciferase reporters (ERK-Luc, FRE-Luc, JNK-Luc, NFkB-Luc) in HEK293 cells overexpressing HER2, treated with lapatinib. The format is cell-based. Particulars: 10 nM, 4 hours. In general terms: Reporter assays use an easily measured gene product as a stand-in for the process of interest.
The next experiment has as its target T1, L755S HER2 receptor (Homo sapiens, UniProt P04626, L755S).
T1 construct: expressed in transfected cells; host or cells: HER2 reporter cells (clone #1)
The experiment in a line: HER2 reporter cells transfected with linear expression cassette of L755S HER2, all-in-one method. The format is cell-based. Particulars: 24 hours post-transfection. From the text: L755S corresponds to a missense mutation of HER2, which changes leucine (L) into serine (S) at amino acid position of 755. In order to functionally characterize this mutation, PCR-mediated overlapping extension was employed to construct linear expression cassette of HER2 carrying this mutation. The linear expression cassette of mutant HER2 DNA was first transfected into the reporter cells followed by treatment with NRG1 and its inhibitors using the “all-in-one” method. The luciferase reporter activity was measured 24 hours post-transfection.

A further experiment addresses T2, P780ins HER2 receptor (Homo sapiens, UniProt P04626, INS780GSP).
T2 construct: expressed in transfected cells; host or cells: HER2 reporter cells (clone #1)
The experiment in a line: HER2 reporter cells transfected with linear expression cassette of P780ins HER2, all-in-one method. It counts as cell-based. From the text:
P780ins corresponds to an insertion mutation of HER2, which adds 3 amino acids (GSP) after the amino acid position of […] (Proline—P). In order to functionally characterize this mutation, PCR-mediated overlapping extension was employed to construct linear expression cassette of HER2 carrying this insertion. The linear expression cassette of mutant HER2 DNA was first transfected into the reporter cells followed by treatment with NRG1 and its inhibitors using the “all-in-one” method. The luciferase reporter activity was measured 24 hours post-transfection.

For another experiment, the target named is T3, T862A HER2 receptor (Homo sapiens, UniProt P04626, T862A).
T3 construct: expressed in transfected cells; host or cells: HER2 reporter cells (clone #1)
The experiment in a line: HER2 reporter cells transfected with linear expression cassette of T862A HER2, all-in-one method. The following applies: 24 hours post-transfection. It counts as cell-based. From the text: T862A corresponds to a missense mutation of HER2, which changes Threonine (T) into Alanine (A) at amino acid position of 862. In order to functionally characterize this mutation, PCR-mediated overlapping extension was employed to construct a linear expression cassette of HER2 carrying this mutation. The linear expression cassette of mutant HER2 DNA was transfected into the reporter cells followed by treatment with NRG1 and its inhibitors using the “all-in-one” method. The luciferase reporter activity was measured 24 hours post-transfection.

Experiment [1] relates to HER1, HER2 and HER3 receptors. The experiment in a line: ERK-Luc, JNK-Luc and NFkB-Luc reporters in HEK293 cells co-transfected with HER1, HER2 and HER3, treated with ligand. Particulars: ligand 6 hours; HER1, HER2, HER3 co-transfected HEK293. It counts as cell-based, human. The method, then: In order to identify reporters to measure the activity of HER2 receptor, expression plasmids of HER1, HER2 and HER3 were co-transfected with different reporter constructs, including ERK-Luc, JNK-Luc and NFkB-Luc, into the HEK293 cells. After 24 hours, the transfected cells were treated with either EGF (HER1 receptor ligand) or NRG1 (HER3 receptor ligand) for 6 hours. The luciferase reporter activity of the transfected cells was measured by Nano-Glo® Luciferase Assay (Promega). […] JNK-Luc reporter was activated when the transfected cells were treated with either HER1 or HER3 ligand (FIG. 11B).
(§1) For cell transfection experiments, HEK293 cells (ATCC) were plated at density of 4-8×10^4 cells per well (96-well plates) or 1-2×10^4 cells per well (384-well plates) in phenol red-free MEM containing 10% FBS and antibiotics. Either DNA plasmid or linear DNA was mixed with TransIT-293 transfection reagent (Mirus Bio LLC). Once cells were trypsinized, DNA transfection mix was added. The cells were then incubated for 24 or 48 hours.

In a further experiment the test system is HER1 and HER2 receptors. The experiment in a line: JNK-Luc reporter in HEK293 cells with HER1 and wild-type or kinase-dead HER2, treated with EGF. The format is cell-based, human. Particulars: HER1 plus wild-type or kinase-dead HER2. Here is the method:
In order to characterize the specificity of activation of JNK-Luc reporter upon treatment of HER1 ligand, JNK-Luc was co-transfected with expression plasmids of HER1 and wild-type or kinase-dead HER2 receptors into the HEK293 cells. After 24 hours, the transfected cells were treated with EGF (HER1 receptor ligand). The luciferase reporter activity of the transfected cells was measured by Nano-Glo® Luciferase Assay (Promega). In FIG. 12, no difference was found between the cells transfected with wild-type HER2 and kinase-dead HER2.
as §1

As to `CS(=O)(=O)CCNCc1ccc(-c2ccc3ncnc(Nc4ccc(OCc5cccc(F)c5)c(Cl)c4)c3c2)o1` [Lapatinib], the “inhibition of increased reporter activities upon HER2 expression” value on HER2 receptor is “did not inhibit”. Besides, the “reporter activity after HER2 inhibitor in the presence of NRG1” value is “did not respond” on L755S HER2 receptor; “very minor reduction of reporter activity” at P780ins HER2 receptor (all-in-one method, 24 hours post-transfection); “did not respond” on T862A HER2 receptor. Further, the “activity retained compared to the cells without the treatment of inhibitor” value on P780ins HER2 receptor (high concentration of lapatinib, in the presence of NRG1) is given as “more than 75%”.

In the case of “EGF: HER1 receptor ligand (NSDSECPLSHDGYCLHDGVCMYIEALDKYACNCVVGYIGERCQYRDLKWWELR)”, in experiment [1], the JNK-Luc reporter activation result is “activated” and the NFkB-Luc reporter activation result was “no activation”. The JNK-Luc reporter activation entry in the experiment with HER1 and HER2 receptors is reported as “effectively activated”.

The values above are taken from patent US11319601B2, “Cell based assay” (Medical Diagnostic Laboratories, L.L.C., priority 2017, dated 2022).
